Assay results reported in patent publication EP4700096A1, “INK COMPOSITION FOR INK-JET PRINTING” (Sakata INX Corporation, priority 2023, dated 2024).

Experiment: SP value (solubility parameter) calculated by Formula 1
Format: physicochemical
Settings: 25°C (298 K), calculated by Formula 1 from latent heat of vaporization, molecular weight, density
Description: The SP value refers to the solubility parameter, and the SP value of the water-soluble organic solvent (B) can be determined by formula 1 below. SP value(unit:((cal/cm^3))^(1/2)) = ({(ΔH−RT)/(M/D)})^(1/2) [formula]

With `OCC(O)CO` [glycerin] as the compound, how does the “SP value (25°C)” value read?
Its value is 14.9 (cal/cm^3)^1/2.

Which “SP value (25°C)” value does the source give for `CC(O)CO` (stereo not drawn) [1,2-propanediol] here?
Its value is 12.6 (cal/cm^3)^1/2.

Which “SP value (25°C)” value does the source give for `CC(O)COC(C)COC(C)CO` (stereo not drawn) [Tripropylene glycol] here?
The value was 9.0 (cal/cm^3)^1/2.
